For data set [1], the system named is SH-SY5Y human neuroblastoma cells. The experiment in a line: Toxicity: LDH activity release in SH-SY5Y cells. It counts as cell-based. The following applies: 24 h; for Maximum concentration tested for toxicity: increasing concentrations from 1 μM up to 1 mM. The method, then: The potential effects on cell viability of the assayed compounds are assayed in SH-SY5Y human neuroblastoma cells, by quantification of Lactate dehydrogenase (LDH) activity release. SH-SY5Y human neuroblastoma cells are seeded into 96-well culture plates at 10^4 cells/well. The medium is then removed and the cells incubated with different concentrations of the compounds during 24 h. The compounds are tested at increasing concentrations starting from 1 μM, in fresh culture medium, in order to find the minimum concentration at which the compounds are toxic, up to a maximum of 1 mM. After 24 h, the medium is removed and cells attached to the bottom of the well are lysed by adding 50 μl of Krebs-Hepes; Triton X-100 1% during 5 minutes at room temperature. For LDH release quantification, the Roche cytotoxicity detection kit (Cat.
No. 11 644 793 001) is used. The LDH activity is measured by its absorbance at 492 nm with reference wavelength 620 nm.
In Table 1, for each compound the maximum concentration at which toxicity was tested is indicated in the second column. In the third column, it is indicated whether at this maximum concentration the compound was toxic or not. All the compounds, with the exception of Compound 3, resulted non-toxic at the concentration for which activity was found, in most of the cases even at a 1000-fold concentration. Thus, the compounds may be considered non-toxic.

A short description of data set [2]: Chelating ability with Zn (II) (absorbance spectra). The data set is classed as physicochemical. The settings on record: for Ability to complex Zn(II): PBS 10 mM, pH 7.4, FIGS. 8-11; for Dissociation grade / Stoichiometry / ε approx.: Zn (II) complex, pH 7.4, expecting time 24 h (4, 7) or 4 h (8, 10). The method, then: FIG. 8 represents the absorbance spectra of the complex Zn(II)-Compound 4. Concentration 200 μM, PBS 10 mM, pH 7.4.
Concentration 180 μM, PBS 10 mM, pH 7.4.
Concentration 100 μM, PBS 10 mM, pH 7.4.
Concentration 20 μM, PBS 10 mM, pH 7.4. […]

A further data set relates to SH-SY5Y cells. Nature of the data set: Neuroprotection against Aβ25-35 toxicity (LDH assay). The data set is classed as cell-based. The settings on record: Homo sapiens, pre-treated 1 hour, 200 μM Aβ25-35 24 hours, read-out: Protect. beta-Amyloid25-35 (minimum concentration showing neuroprotection). The method, then:
In order to evaluate potential neuroprotection of compounds, SH-SY5Y cells, cultured in 96-well plates, were pre-treated for 1 hour with the compound at different concentrations and then exposed 24 hours to 200 μM Aβ25-35 (Neosystem) to induce extensive oxidative stress and cell death. The ability of the compound of protecting against this toxicity is then evaluated by measuring intracellular LDH, using the colorimetric LDH assay.
It is widely accepted that the neurotoxic activity of Aβ resides within amino acids 25-35 (see e.g. Yankner B A et al., (1990) Neurotrophic and neurotoxic effects of amyloid β protein: reversal by tachykinin neuropeptides; Science 250:279-282).

In data set [3] the test system is SH-SY5Y human neuroblastoma cells. Nature of the data set: Protection against 6-OHDA-induced cell death, condition A (10% foetal bovine serum). It counts as cell-based. The settings on record: preincubated 2 hours, 6-OHDA 75 μM 16 hours, read-out: Protect. 6-OHDA (+ FBS) (minimum concentration with neuroprotective effect). The text has this: (§1) The aim of this experiment is to determine the protective effect of the compounds of formula (1) against the toxicity caused by 6-OHDA. This toxin induces a cell death similar to which occurs in Parkinson's disease, destroying dopaminergic neurons (“MPTP and 6-hydroxydopamine-induced neurodegeneration as models for Parkinson's disease: neuroprotective strategies”; Grunblatt E, et al.; J Neurol. 2000 Apr; 247 Suppl 2:II95-102).
(§2) Two or three days before the experiment, the SH-SY5Y human neuroblastoma cells are seeded into 96-well culture plate at a density of 10^4 cells/well. Cells are exposed to the treatment with 6-OHDA and, finally, cell death is measured by LDH quantification. As positive control we used NAC.
• A) NAC and the compound of formula (I) are preincubated during 2 hours before the treatment with 6-OHDA 75 μM during 16 hours. The assay is performed in medium containing 10% Foetal bovine serum.
(§3) For each compound the minimum concentration of compound of formula (I) at which a neuroprotective effect is shown.

Data set [4] shares this test system. The experiment in a line: Protection against 6-OHDA-induced cell death, condition B (no fetal bovine serum). The data set is classed as cell-based. The following applies: preincubated 1 hour, 6-OHDA 50 μM 24 hours, read-out: Protect. 6-OHDA (−FBS) (minimum concentration with neuroprotective effect).
Description: as §1, §2
• B) NAC and the compound of formula (I) are preincubated during 1 hour before the treatment with 6-OHDA 50 μM during 24 hours. The assay is performed in a medium without any fetal bovine serum.
as §3

Where [5] appears, read: Zn (II) complex 1:2 (ML2), pH 7.4, expecting time 24 h (7) or 4 h (8, 10).

For the compound `CSc1cc(/C=N/O)nc2c1ccc1cccnc12` [Compound 4, 4-Methylsulfanyl-[1,10]phenanthroline-2-carbaldehyde oxime], the “Maximum concentration tested for toxicity” value in data set [1] is listed as 1 mM. Besides, the “Toxic at maximum concentration tested (Yes/No)” value (shortened to “Toxic … (Yes/No)”) in data set [1] (at 1 mM) is “Yes”. For the same compound, in data set [2], the “Ability to complex Zn(II)” value is recorded as “complexed with Zn(II) to an extent”, the Dissociation grade worked out at 46 ± 7, the Stoichiometry was 1:1 (ML) and the ε approx. is around 1000 L/mol/cm. The Formation constant in data set [2] (Zn (II) complex 1:1 (ML), pH 7.4, expecting time 24 h) is listed as 2.2 ± 0.6 · 10^4 l/mol. Also, in the data set on SH-SY5Y cells, the minimal effective concentration is 0.5 µM. Further, the minimal effective concentration in data set [3] was 0.05 µM. Besides, the minimal effective concentration in data set [4] was 0.5 µM.
For the compound `COCCOc1cc(/C=N/O)nc2c1ccc1cccnc12` [Compound 8, 4-(2-Methoxy-ethoxy)-[1,10]phenanthroline-2-carbaldehyde oxime], the “Maximum concentration tested for toxicity” value in data set [1] amounted to 1 mM. The “Toxic … (Yes/No)” value in data set [1] (at 1 mM) was “No”. Further, in data set [2], the “Ability to complex Zn(II)” value is “complexed with Zn(II) to an extent”, the Dissociation grade was determined as 7.7 ± 0.6, the Stoichiometry was 1:2 (ML2) and the ε approx. was around 7100 L/mol/cm. Moreover, the Formation constant in data set [2] (setting [5]) is 1.4 ± 0.6 · 10^11 l^2/mol^2. In the data set with SH-SY5Y cells, the minimal effective concentration came out at 0.5 µM. Besides, in data set [3], the minimal effective concentration was 0.05 µM. Also, the minimal effective concentration in data set [4] was 0.5 µM.
As to `CCN(CC)CCOc1cc(/C=N/O)nc2c1ccc1cccnc12` [Compound 10, 4-(2-Diethylamino-ethoxy)-[1,10]phenanthroline-2-carbaldehyde oxime], in data set [1], the “Maximum concentration tested for toxicity” value amounted to 0.001 mM. In addition, the “Toxic … (Yes/No)” value in data set [1] (at 1 μM) is “Yes”. For the same compound, in data set [2], the “Ability to complex Zn(II)” value is listed as “complexed with Zn(II) to an extent”, the Dissociation grade is on record as 3.7 ± 0.6, the Stoichiometry is 1:2 (ML2) and the ε approx. was around 9400 L/mol/cm. Also, in data set [2] (setting [5]), the Formation constant is 1.7 ± 0.4 · 10^13 l^2/mol^2. Besides, in the data set with SH-SY5Y cells, the minimal effective concentration amounted to 0.5 µM. Further, the minimal effective concentration in data set [3] came to 0.05 µM. Besides, the minimal effective concentration in data set [4] turned out to be 0.5 µM.
Consider `CC(C)Sc1cc(/C=N/O)nc2c1ccc1cccnc12` [Compound 7, 4-Isopropylsulfanyl-[1,10]phenanthroline-2-carbaldehyde oxime], for which the “Maximum concentration tested for toxicity” value in data set [1] was found to be 1 mM. For the same compound, in data set [1] (at 1 mM), the “Toxic … (Yes/No)” value is listed as “Yes”. In data set [2], the “Ability to complex Zn(II)” value is “complexed with Zn(II) to an extent”, the Dissociation grade is 13.4 ± 0.7, the Stoichiometry is 1:2 (ML2) and the ε approx. is around 840 L/mol/cm. Moreover, the Formation constant in data set [2] (setting [5]) is 2.2 ± 0.6 · 10^10 l^2/mol^2. Further, the minimal effective concentration in data set [3] is 0.05 µM. Besides, the minimal effective concentration in data set [4] was found to be 0.5 µM.
